Results: publication PMC3827627 (ACS chemical biology, 2013)

How the values were obtained:
PKA-RIα holoenzyme = PKA-RIα holoenzyme (Bos taurus, UniProt P00514); format: biochemical; settings: for EC50: read-out: RIα EC50, LiReC assay, 6 nM PKA holoenzyme, 3 nM TR-IP20
RIIβ-S112A holoenzyme = RIIβ-S112A holoenzyme (Rattus norvegicus, UniProt P12369, S112A); format: biochemical; settings: LiReC assay; for EC50: read-out: RIIβ EC50, RIIβ-S112A holoenzyme, 6 nM PKA holoenzyme, 3 nM TR-IP20
Chain of RIIβ-S112A holoenzyme (P12369 108-402 S112A): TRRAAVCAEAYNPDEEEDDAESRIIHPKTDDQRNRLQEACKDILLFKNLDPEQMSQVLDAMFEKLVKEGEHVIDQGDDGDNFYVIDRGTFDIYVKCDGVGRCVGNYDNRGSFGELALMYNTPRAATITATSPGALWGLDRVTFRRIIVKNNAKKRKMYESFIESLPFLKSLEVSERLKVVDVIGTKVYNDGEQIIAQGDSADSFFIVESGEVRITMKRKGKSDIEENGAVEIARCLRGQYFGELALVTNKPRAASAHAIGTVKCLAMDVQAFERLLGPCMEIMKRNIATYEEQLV

Chain of PKA-RIα holoenzyme (P00514 92-380): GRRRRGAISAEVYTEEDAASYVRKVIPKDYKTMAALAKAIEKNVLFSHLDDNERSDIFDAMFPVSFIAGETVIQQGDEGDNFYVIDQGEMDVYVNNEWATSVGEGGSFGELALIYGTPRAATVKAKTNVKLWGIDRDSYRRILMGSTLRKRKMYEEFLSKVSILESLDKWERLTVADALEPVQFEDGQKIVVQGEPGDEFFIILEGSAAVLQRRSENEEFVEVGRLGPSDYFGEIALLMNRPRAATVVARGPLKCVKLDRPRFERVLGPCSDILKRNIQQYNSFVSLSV

EC50 (PKA-RIα holoenzyme) | EC50 (RIIβ-S112A holoenzyme) | activation of RIIβ holoenzymes (in words) (RIIβ-S112A holoenzyme) | fold increase in EC50 relative to cAMP (PKA-RIα holoenzyme; RIα holoenzyme, HE33 vs cAMP) | Compound
5670 nM | – | – | – | 2-OMe cAMP
170 nM | 35 nM | – | – | O=C(Nc1ncnc2c1ncn2[C@@H]1O[C@@H]2COP(=O)(O)OC2C1O)c1ccccc1 (stereo in doubt) [6-Bnz cAMP]
42 nM | 45 nM | – | – | Nc1nc(Cl)nc2c1ncn2[C@@H]1O[C@@H]2COP(=O)(O)OC2[C@@H]1O (stereo partly shown) [2-Cl cAMP]
140 nM | 39 nM | potent RIIβ activators | – | CCCC(=O)Nc1ncnc2c1ncn2[C@@H]1O[C@@H]2COP(=O)(O)O[C@H]2[C@H]1O [6-MB cAMP]
289 nM | 59 nM | – | – | CC(C)(C)NC(=O)Nc1ncnc2c1ncn2[C@@H]1O[C@@H]2COP(=O)(O)O[C@H]2[C@H]1O [6-MBC cAMP]
92 nM | 20 nM | – | – | O=P1(O)OC[C@H]2O[C@@H](n3cnc4c(Nc5ccccc5)ncnc43)[C@@H](O)C2O1 (stereo partly shown) [6-Phe cAMP]
116 nM | 197 nM | – | – | NCCCCCCNc1nc2c(N)ncnc2n1[C@@H]1O[C@@H]2COP(=O)(O)O[C@H]2[C@H]1O [8-AHA cAMP]
81 nM | 184 nM | – | – | Nc1ncnc2c1nc(Br)n2[C@@H]1O[C@@H]2COP(=O)(O)O[C@H]2[C@H]1O [8-Br cAMP]
33 nM | 149 nM | – | – | Nc1ncnc2c1nc(Sc1ccc(Cl)cc1)n2[C@@H]1O[C@@H]2COP(=O)(O)O[C@H]2[C@H]1O [8-CPT cAMP]
58 nM | 275 nM | – | – | Nc1ncnc2c1nc(Cl)n2[C@@H]1O[C@@H]2COP(=O)(O)O[C@H]2[C@H]1O [8-Cl cAMP]
358 nM | 1150 nM | – | – | CCCCCCNc1nc2c(N)ncnc2n1[C@@H]1O[C@@H]2COP(=O)(O)OC2[C@@H]1O (stereo partly shown) [8-HA cAMP]
102 nM | 223 nM | – | – | CNc1nc2c(N)ncnc2n1[C@@H]1O[C@@H]2COP(=O)(O)O[C@H]2[C@H]1O [8-MA cAMP]
1020 nM | 3950 nM | – | – | Nc1ncnc2c1nc(N1CCCCC1)n2[C@@H]1O[C@@H]2COP(=O)(O)O[C@H]2[C@H]1O [8-PIP cAMP]
414 nM | 45 nM | – | 10 fold | CCCN(CCC)c1ncnc2c1ncn2[C@@H]1O[C@@H]2COP(=O)(O)O[C@H]2[C@H]1O [HE33]
15000 nM | 5080 nM | – | – | Nc1nc2c(ncn2[C@@H]2O[C@@H]3COP(=O)(O)O[C@H]3[C@H]2O)c(=O)[nH]1 [cGMP]

Compound | EC50 (PKA-RIα holoenzyme) | EC50 (RIIβ-S112A holoenzyme) | activation of RIIβ holoenzymes (in words) (RIIβ-S112A holoenzyme) | fold increase in EC50 relative to cAMP (PKA-RIα holoenzyme; RIα holoenzyme, HE33 vs cAMP)
O=[P@]1(S)OC[C@H]2O[C@@H](n3cnc4cc(Cl)c(Cl)cc43)[C@H](O)[C@@H]2O1 [5,6 DCl BIMPS] | 270 nM | 129 nM | – | –
Nc1ncnc2c1ncn2[C@@H]1O[C@@H]2COP(O)(=S)O[C@H]2[C@H]1O (stereo partly shown) [Sp cAMP] | 1590 nM | 2270 nM | – | –
O=P1(S)OCC2OC(n3cnc4cc(Cl)c(Cl)cc43)C(O)C2O1 (stereo not shown) [Sp-5,6-DCl BIMPS] | 344 nM | 83 nM | – | –
Nc1ncnc2c1nc(Br)n2[C@@H]1O[C@@H]2COP(O)(=S)O[C@H]2[C@H]1O (stereo partly shown) [Sp-8-B cAMP] | 1360 nM | 435 nM | – | –
Nc1ncnc2c1nc(Sc1ccc(Cl)cc1)n2[C@@H]1O[C@@H]2CO[P@](=O)(S)O[C@H]2[C@H]1O [Sp-8-CPT cAMP] | 342 nM | 96 nM | – | –
Nc1ncnc2c1nc(N1CCCCC1)n2[C@@H]1O[C@@H]2COP(O)(=S)O[C@@H]2C1O (stereo partly shown) [Sp-8-PIP cAMP] | 5050 nM | 2960 nM | – | –
